Assay results reported in patent US5192784A, “Etanidazole injectable solution” (Du Pont Merck Pharmaceutical Company, priority 1992, dated 1993).
Values after ≈ are worked out from the molar mass of the structure shown.

Columns and labels:
[1] = Crystal formation on storage at 4° C., autoclaved vs non-autoclaved (reheated samples); type: physicochemical
Description: Sixteen samples of etanidazole solutions at various pHs, which contained crystals, were heated in a 56° C. water bath for 1 hour to dissolve the crystals. After heating, the samples were divided evenly.

[2] = Effect of initial etanidazole concentration on rate of decomposition in 0.05M citrate pH 5.5, 80° C.; type: physicochemical
Description: (§1) The k values shown in Tables 1-5 and FIG. 1 should be multipled by a factor of 2.303 to provide the actual k value.
(§2) The chemical stability of etanidazole was evaluated in solutions of varying composition stored at 80° C. Etanidazole was placed into suitable containers and sufficient buffer was added to result in a 1 mg/ml solution. A constant ionic strength of 0.3 was maintained with potassium chloride. All solutions were prepared in triplicate. The solution was divided into 2 ml sealed glass vials and was placed into cardboard storage boxes to protect the compound from light. At appropriate intervals, samples were removed from the stability chamber and cooled to room temperature. An aliquot of the sample was diluted with mobile phase containing internal standard prior to HPLC analysis. For those pH conditions where degradation was rapid, the sample aliquot was immediately quenched to neutral pH and room temperature.
(§3) Data were analyzed using methods as described by Martin et al. in "Physical Pharmacy", 3rd ed, pp 352-395 (1983).
The effect of initial etanidazole concentration on the rate of decomposition was examined in 0.05M citrate pH 5.5, at 80° C. Initial concentrations of 1, 25 and 50 mg/ml were employed.

[3] = physchem
Description: Solubility studies were carried out by placing excess etanidazole into a suitable container and rotating end-to-end for twenty four hours at 25° C. The suspension was passed through a 0.2μ filter with the first portion discarded to ensure saturation of the filter. An aliquot of the filtrate was diluted and analyzed by HPLC and the remainder of the filtrate was employed for pH determination.

[4] = Effect of ionic strength on rate of decomposition in 0.1M acetate, pH 5.0, 80° C.; type: physicochemical
Description: as §1, §2, §3
The impact of the ionic strength of the buffer system on the rate of decomposition was examined in 0.1M acetate, pH 5.0, at 80° C. Ionic strengths of 0.15, 0.30 and 0.60 were employed.

[5] = Chemical stability (hydrolysis kinetics) of etanidazole in buffered solutions at 80° C.; type: physicochemical; conditions: for kobs, observed first-order rate constant: mean, n = 3
Description: as §1, §2, §3
In the intermediate pH range where buffers were employed, the observed first-order rate constant can be defined at any given pH with the following equation;
[…] [H+]+ko +kOH- [OH-]+kB [BT ]
where kH+ and kOH- are the second-order specific acid and specifiic base catalysis rate constants, respectively kB is the second-order rate constant for the catalysis due to the buffer, and [BT ] is the total buffer concentration. Plotting kobs vs [BT ] yields a slope of kB and a y-intercept of kH+ [H+]+ko +kOH- [OH-], the observed rate constant extrapolated to zero buffer concentration (k'). The observed rate constant extrapolated to zero buffer concentration (k') are used to generate the pH-rate profile (FIG. 1).
The buffer systems permit pH control through the equilibrium of their acidic and basic forms. Utilizing these equilibria, the rate constants for the individual buffer species may be calculated. In the acetate buffers, the second-order rate constant for the catalysis due to the acetate buffer is defined as follows;
[…]
where ^f CH3 COOH is the fraction of the acetate buffer in the neutral form, ^k (CH3 COOH) is the second-order rate constant for the catalysis due to the acetic acid species, ^f CH3 COO- is the fraction of the acetate buffer in the ionized form and ^k CH3 COO- is the second-order rate constant for the catalysis due to the acetate anion. Employing the same buffer for various pH conditions permits the determination of the second-order rate constants for the various species (Table 3).

[6] = Equilibrium solubility of etanidazole in 0.05M acetate or citrate buffers at pH 4.0 with additives; type: physicochemical; conditions: for solubility: mean ± SD, read-out: Solubility at 4° C.
Description: Equilibrium solubility of etanidazole in 0.05M acetate or citrate buffers at pH 4.0 and the effects of additives were determined.

O=C(Cn1ccnc1[N+](=O)[O-])NCCO [Etanidazole]
crystalline particulates on storage ([1]; 50 mg/ml, aqueous buffer, 4° C.): occasionally develop crystalline particulates
non-autoclaved samples containing crystals again ([1]; various pHs, heated 56° C. 1 hour, then 4 days at 4° C.): 3 of 8
effect of initial concentration on degradation ([2]; 1, 25 and 50 mg/ml): not concentration dependent in this range
kobs, observed first-order rate constant ([2]; initial concentration 1 mg/ml): 0.00957 ± 7.37e-05 day⁻¹
kobs, observed first-order rate constant ([2]; initial concentration 25 mg/ml): 0.0127 ± 0.000586 day⁻¹
kobs, observed first-order rate constant ([2]; initial concentration 50 mg/ml): 0.0127 ± 0.000153 day⁻¹
solubility ([3]; initial dissolved concentration (before crystals appeared)): > 150 mg/mL
solubility at 24 h ([3]; solubility): 59.2 to 71.7 mg/mL (≈ 276 to 335 mM)
solubility at 24 h ([3]; water, pH 6.5, water, solubility in water): 68.1 mg/mL (≈ 318 mM)
effect of ionic strength on degradation rate ([4]; 0.15, 0.30 and 0.60, 0.1M acetate pH 5.0, 80° C.): negligible effect on the degradation rate
kobs, observed first-order rate constant ([4]; ionic strength 0.15, 0.1M acetate pH 5.0, 80° C.): 0.0059 ± 0.000108 day⁻¹
kobs, observed first-order rate constant ([4]; ionic strength 0.30, 0.1M acetate pH 5.0, 80° C.): 0.00516 ± 0.000104 day⁻¹
kobs, observed first-order rate constant ([4]; ionic strength 0.60, 0.1M acetate pH 5.0, 80° C.): 0.00518 ± 0.000306 day⁻¹
kobs, observed first-order rate constant ([5]; 0.01M HCl pH 2.2, 80° C.): 0.00824 day⁻¹
kobs, observed first-order rate constant ([5]; 0.013M Citrate pH 6.5, 80° C.): 0.0106 day⁻¹
kobs, observed first-order rate constant ([5]; 0.02M Citrate pH 5.5, 80° C.): 0.00843 day⁻¹
kobs, observed first-order rate constant ([5]; 0.025M Phosphate pH 6.5, 80° C.): 0.0195 day⁻¹
kobs, observed first-order rate constant ([5]; 0.03M Citrate pH 6.5, 80° C.): 0.0119 day⁻¹
kobs, observed first-order rate constant ([5]; 0.05M Acetate pH 4.0, 80° C.): 0.00119 day⁻¹
kobs, observed first-order rate constant ([5]; 0.05M Acetate pH 5.0, 80° C.): 0.00386 day⁻¹
kobs, observed first-order rate constant ([5]; 0.05M Borate pH 9.2, 80° C.): 0.0333 day⁻¹
kobs, observed first-order rate constant ([5]; 0.05M Citrate pH 3.0, 80° C.): 0.00575 day⁻¹
kobs, observed first-order rate constant ([5]; 0.05M Citrate pH 4.5, 80° C.): 0.00336 day⁻¹
kobs, observed first-order rate constant ([5]; 0.05M Citrate pH 5.5, 80° C.): 0.00957 day⁻¹
kobs, observed first-order rate constant ([5]; 0.05M Phosphate pH 6.5, 80° C.): 0.0135 day⁻¹
kobs, observed first-order rate constant ([5]; 0.05M Phosphate pH 7.4, 80° C.): 0.0168 day⁻¹
kobs, observed first-order rate constant ([5]; 0.065M Citrate pH 6.5, 80° C.): 0.0132 day⁻¹
kobs, observed first-order rate constant ([5]; 0.1M Acetate pH 4.0, 80° C.): 0.00185 day⁻¹
kobs, observed first-order rate constant ([5]; 0.1M Acetate pH 5.0, 80° C.): 0.00516 day⁻¹
kobs, observed first-order rate constant ([5]; 0.1M Borate pH 9.2, 80° C.): 0.0382 day⁻¹
kobs, observed first-order rate constant ([5]; 0.1M Citrate pH 3.0, 80° C.): 0.00882 day⁻¹
kobs, observed first-order rate constant ([5]; 0.1M Citrate pH 4.5, 80° C.): 0.00587 day⁻¹
kobs, observed first-order rate constant ([5]; 0.1M Citrate pH 5.5, 80° C.): 0.0101 day⁻¹
kobs, observed first-order rate constant ([5]; 0.1M HCl pH 1.0, 80° C.): 0.0961 day⁻¹
kobs, observed first-order rate constant ([5]; 0.1M NaOH pH 12.6, 80° C.): 13.1 day⁻¹
kobs, observed first-order rate constant ([5]; 0.1M Phosphate pH 6.5, 80° C.): 0.0149 day⁻¹
kobs, observed first-order rate constant ([5]; 0.1M Phosphate pH 7.4, 80° C.): 0.0187 day⁻¹
kobs, observed first-order rate constant ([5]; 0.135M Phosphate pH 7.4, 80° C.): 0.0183 day⁻¹
kobs, observed first-order rate constant ([5]; 0.18M Citrate pH 4.5, 80° C.): 0.00789 day⁻¹
kobs, observed first-order rate constant ([5]; 0.25M Acetate pH 4.0, 80° C.): 0.00342 day⁻¹
kobs, observed first-order rate constant ([5]; 0.25M Acetate pH 5.0, 80° C.): 0.00801 day⁻¹
kobs, observed first-order rate constant ([5]; 0.25M Borate pH 9.2, 80° C.): 0.0596 day⁻¹
kobs, observed first-order rate constant ([5]; 0.25M Citrate pH 3.0, 80° C.): 0.0197 day⁻¹
kobs, observed first-order rate constant ([5]; 0.3M HCl pH 0.62, 80° C.): 0.263 day⁻¹
kobs, observed first-order rate constant ([5]; 0.3M NaOH pH 13.1, 80° C.): 52.9 day⁻¹
k', first-order rate constant extrapolated to zero buffer concentration ([5]; Acetate pH 4.0, 80° C.): 0.000688 day⁻¹
kB, second-order rate constant for the buffer catalysis ([5]; Acetate pH 4.0, 80° C.): 1.27e-07 M⁻¹ s⁻¹
k', first-order rate constant extrapolated to zero buffer concentration ([5]; Acetate pH 5.0, 80° C.): 0.00296 day⁻¹
kB, second-order rate constant for the buffer catalysis ([5]; Acetate pH 5.0, 80° C.): 2.35e-07 M⁻¹ s⁻¹
kB, second-order rate constant for the buffer species ([5]; Acetic acid, 80° C.): 9.41e-08 M⁻¹ s⁻¹
kB, second-order rate constant for the buffer species ([5]; Acetic^-1, 80° C.): 3.17e-07 M⁻¹ s⁻¹
k', first-order rate constant extrapolated to zero buffer concentration ([5]; Borate pH 9.2, 80° C.): 0.0258 day⁻¹
kB, second-order rate constant for the buffer catalysis ([5]; Borate pH 9.2, 80° C.): 1.55e-06 M⁻¹ s⁻¹
k', first-order rate constant extrapolated to zero buffer concentration ([5]; Citrate pH 3.0, 80° C.): 0.00204 day⁻¹
kB, second-order rate constant for the buffer catalysis ([5]; Citrate pH 3.0, 80° C.): 8.15e-07 M⁻¹ s⁻¹
k', first-order rate constant extrapolated to zero buffer concentration ([5]; Citrate pH 4.5, 80° C.): 0.00197 day⁻¹
kB, second-order rate constant for the buffer catalysis ([5]; Citrate pH 4.5, 80° C.): 3.94e-07 M⁻¹ s⁻¹
k', first-order rate constant extrapolated to zero buffer concentration ([5]; Citrate pH 5.5, 80° C.): 0.00824 day⁻¹
kB, second-order rate constant for the buffer catalysis ([5]; Citrate pH 5.5, 80° C.): 2.29e-07 M⁻¹ s⁻¹
k', first-order rate constant extrapolated to zero buffer concentration ([5]; Citrate pH 6.5, 80° C.): 0.0102 day⁻¹
kB, second-order rate constant for the buffer catalysis ([5]; Citrate pH 6.5, 80° C.): 5.57e-07 M⁻¹ s⁻¹
kB, second-order rate constant for the buffer species ([5]; Citrate^-3, 80° C.): 9.4e-07 M⁻¹ s⁻¹
kB, second-order rate constant for the buffer species ([5]; Citric Acid, 80° C.): 1.03e-06 M⁻¹ s⁻¹
kB, second-order rate constant for the buffer species ([5]; Dihydrogen citrate^-1, 80° C.): 5.3e-07 M⁻¹ s⁻¹
kB, second-order rate constant for the buffer species ([5]; Dihydrogen phosphate^-1, 80° C.): 3.95e-07 M⁻¹ s⁻¹
kB, second-order rate constant for the buffer species ([5]; Hydrogen citrate^-2, 80° C.): 8.23e-08 M⁻¹ s⁻¹
kB, second-order rate constant for the buffer species ([5]; Hydrogen phosphate^-2, 80° C.): 1.17e-07 M⁻¹ s⁻¹
k', first-order rate constant extrapolated to zero buffer concentration ([5]; Phosphate pH 6.5, 80° C.): 0.0119 day⁻¹
kB, second-order rate constant for the buffer catalysis ([5]; Phosphate pH 6.5, 80° C.): 3.5e-07 M⁻¹ s⁻¹
k', first-order rate constant extrapolated to zero buffer concentration ([5]; Phosphate pH 7.4, 80° C.): 0.0161 day⁻¹
kB, second-order rate constant for the buffer catalysis ([5]; Phosphate pH 7.4, 80° C.): 2.2e-07 M⁻¹ s⁻¹
primary route of degradation ([5]; analysis of degradation product, 80° C.): through the hydrolysis of the amide linkage
buffer catalysis of degradation ([5]; citrate and acetate at the pH minimum, 80° C.): Citrate and acetate were both catalytic at the pH minimum, with citrate being a stronger catalyst than acetate
pH at which overall rate constant was minimum ([5]; hydrolysis, 80° C.): approximately 4
kinetics of hydrolysis ([5]; pH range of 0.6 to 12.6, 80° C.): apparent first-order kinetics
effect of concentration and ionic strength on stability ([5]; summary, 80° C.): negligible effects on the stability
solubility ([6]; 0.05m acetate buffer, aqueous buffer, acetate 0.05M pH 4.0, no additive): 83.4 ± 26.3 mg/mL (≈ 389 mM)
solubility ([6]; 0.05m acetate buffer, acetate 0.05M pH 4.0, 0.065% Imidazole): 64.8 ± 32.1 mg/mL (≈ 303 mM)
solubility ([6]; 0.05m acetate buffer, acetate 0.05M pH 4.0, 0.13% Ethylenediamine): 54.8 ± 30.9 mg/mL (≈ 256 mM)
solubility ([6]; 0.05m citrate buffer, aqueous buffer, citrate 0.05M pH 4.0, no additive): 36.6 ± 6.4 mg/mL (≈ 171 mM)
solubility ([6]; 0.05m citrate buffer, citrate 0.05M pH 4.0, 0.065% Imidazole): 95.4 ± 3.7 mg/mL (≈ 445 mM)
solubility ([6]; 0.05m citrate buffer, citrate 0.05M pH 4.0, 0.13% Ethylenediamine): 61.5 ± 33.9 mg/mL (≈ 287 mM)
effect of imidazole on etanidazole solubility ([6]; citrate buffer, pH 4.0, 4° C.): Imidazole increased etanidazole solubility in citrate buffer
